Laboratory results: patent US20230332232A1, “COMPOSITIONS AND METHODS FOR DIAGNOSING AND TREATING A DYSTONIA” (Duke University, priority 2020, published 2023)

Tested on: wild-type (WT) murine embryonic fibroblasts (MEFs)
Assay: Untargeted LC/MS/MS proteomics of EVs from WT MEFs exposed 24 hours to drug, compared with untreated WT MEFs
Format: cell-based, mouse
Settings: for direction of modulated EV protein expression: WT cells
Experimental: Methods for isolation and purification of exosomes and extracellular vesicles (EV) were extensively reviewed. Experiments were performed to arrive at a robust and reproducible protocol. The protocol used herein is that set forth in Théry et al, 2006, which is incorporated by reference for it teaching of this protocol. This protocol involves depleting serum-derived EVs from cell culture media by overnight ultracentrifugation and exchanging media for 1% FBS EV-depleted media. Media is then collected from cells following a 24-hour conditioning period and EVs are isolated by 18-hour ultracentrifugation at 100,000 g (FIG. 1A).
EVs were isolated from media of cultured murine embryonic fibroblasts (MEFs) prepared in-house according to protocols described by Xu 2005 from DYT1 knockin mice (Tor1a^delGAG/+) (Goodchild R E, et al. (2005) Neuron. 48:923-932) and littermate wild-type (WT) controls. The cultured MEFs from the DYT1 mice were exposed for 24 hours to Ritonavir (RTV) while the MEFs from WT mice were exposed to vehicle, ISRIB, or Salubrinal (SAL). The EVs isolated from these WT cells and DYT1 were characterized by untargeted proteomics and RNA-seq to identify differentially expressed proteins and RNAs as candidate biomarkers. Experimenter and Proteomics core staff were blinded to genotype of cell cultures throughout preparation and analysis phases. EV isolation was confirmed by Western immunoblot documenting presence of the exosomal marker (TSG101) and absence of the endoplasmic reticulum (ER) marker (CANX) (FIG. 1B (Cohort 1) and FIG. 1C (Cohort 2)).
Following the bicinchoninic acid assay (BCA) analysis and Western immunoblot of a portion of samples for QC, 11.6 μg-129.2 μg of EV protein lysates in RIPA buffer were sent to the Duke Proteomics and Metabolomics Shared Resource core facility for LC/MS/MS quantitative proteomic analysis. Samples were first normalized to 20 μg and spiked with undigested casein at a total of 40 fmol/μg, 80 fmol/μg, or 160 fmol/μg, then reduced with 10 mM dithiolthreitol for 30 minute at 80° C. and alkylated with 20 mM iodoacetamide for 30 minutes at room temperature. Next, the samples were supplemented with a final concentration of 1.2% phosphoric acid and 741 μL of S-Trap (Protifi) binding buffer (90% MeOH/100 mM […]). Proteins were trapped on the S-Trap, digested using 20 ng/μL sequencing grade trypsin (Promega) for 1 hour at 47° C., and eluted using 50 mM TEAB, followed by 0.2% FA, and lastly using 50% CAN/0.2% FA. All samples were then lyophilized to dryness and resuspended in 40 μL 1% TFA/2% acetonitrile containing 12.5 fmol/μL yeast alcohol dehydrogenase (ADH_YEAST). A QC Pool was created from 3 uL of each sample. All QC Pools were run periodically throughout the acquisition period.
Quantitative LC/MS/MS was performed on 2 μL of each sample, using a nanoAcquity UPLC system (Waters Corp) coupled to a Thermo Orbitrap Fusion Lumos high resolution accurate mass tandem mass spectrometer (Thermo) via a nanoelectrospray ionization source. Briefly, the sample was first trapped on a Symmetry C18 20 mm×180 μm trapping column (5 μL/min at 99.9/0.1 v/v water/acetonitrile), after which the analytical separation was performed using a 1.8 μm Acquity HSS T3 C18 75 μm×250 mm column (Waters Corp.) with a 90 minute linear gradient of 5% to 30% acetonitrile with 0.1% formic acid at a flow rate of 400 nanoliters/minute (nL/min) with a column temperature of 55° C. Data collection on the Fusion Lumos mass spectrometer was performed in a data-dependent acquisition (DDA) mode of acquisition with a r=120,000 (@ m/z 200) full MS scan from m/z 375-1500 with a target AGC value of 2e5 ions. MS/MS scans were acquired at Rapid scan rate (Ion Trap) with an AGC target of 5e3 ions and a max injection time of 100 ms. The total cycle time for MS and MS/MS scans was 2 seconds. A 20 second dynamic exclusion was employed to increase depth of coverage. The total analysis cycle time for each sample injection was approximately 2 hours. […]

[1] = EV protein Prep, Prolyl endopeptidase
[2] = EV protein Protein transport protein Sec31A
[3] = EV protein Q8BPB5, EGF-containing fibulin-like ECM protein 1
[4] = EV protein Q8C878, NEDD8-activating enzyme E1 catalytic subunit
[5] = EV protein Q8R081, Heterogeneous nuclear ribonucleoprotein 1
[6] = EV protein Q9D1M4, Eukaryotic translation EF1 epsilon-1
[7] = EV protein Q62261, Spectrin beta chain, non-crythrocytic 1
[8] = EV protein Q89051, Integral membrane protein 2B
[9] = EV protein Regulator of nonsense transcripts 1

`O=C(COc1ccc(Cl)cc1)NC1CCC(NC(=O)COc2ccc(Cl)cc2)CC1` (stereo not drawn) [ISRIB] was tested. Which “ISRIBvWT Z Score” value (EV protein P27612, Phospholipase A-2-activating protein) did it give?
The value was −2.39.

What about the “ISRIB Direction Same as dE?” value (EV protein P48678, Prelamin-) of the same molecule?
The value was “yes”.

What about the “ISRIBvWT Z Score” value (EV protein P48678, Prelamin-) of the same molecule?
The value was −0.19.

What about the “ISRIBvWT Z Score” value (EV protein P61089, Ubiquitin-conjugating enzyme) of the same molecule?
The value was 0.41.

And the “ISRIBvWT Z Score” value (EV protein Pdia4 (P08003))?
The value was 1.37.

And the “ISRIBvWT Z Score” value (EV protein Penk (P22005))?
The value was −0.11.

What about the “ISRIBvWT Z Score” value (EV protein Plaa P27612) of the same molecule?
Its value is −2.39.

What about the “ISRIBvWT Z Score” value (EV protein Pld3 (Q35405)) of the same molecule?
Its value is 1.18.

What about the “ISRIB Direction Same as dE?” value [1] of the same molecule?
Its value is “yes”.

And the “ISRIBvWT Z Score” value [1]?
Its value is −1.11.

What about the “ISRIB Direction Same as dE?” value [2] of the same molecule?
The value was “yes”.

And the “ISRIBvWT Z Score” value [2]?
Its value is −1.34.

And the “ISRIB Direction Same as dE?” value (EV protein Prpf8 (Q99PV0))?
Its value is “yes”.

And the “ISRIBvWT Z Score” value (EV protein Prpf8 (Q99PV0))?
The value was −0.01.

And the “ISRIB Direction Same as dE?” value (EV protein Psmd1 (Q3TXS7))?
Its value is “yes”.

What about the “ISRIBvWT Z Score” value (EV protein Psmd1 (Q3TXS7)) of the same molecule?
Its value is −0.65.

And the “ISRIBvWT Z Score” value (EV protein Pura (P42669))?
The value was 0.52.

What about the “ISRIBvWT Z Score” value (EV protein Q6X893, Choline transporter-like protein 1) of the same molecule?
The value was 0.80.

What about the “ISRIBvWT Z Score” value (EV protein Q8BL97, Serine arginine-rich splicing factor 7) of the same molecule?
Its value is 0.13.

And the “ISRIB Direction Same as dE?” value [3]?
Its value is “yes”.

And the “ISRIBvWT Z Score” value [3]?
Its value is 0.07.

And the “ISRIB Direction Same as dE?” value [4]?
The value was “yes”.

What about the “ISRIBvWT Z Score” value [4] of the same molecule?
Its value is −1.68.

And the “ISRIBvWT Z Score” value (EV protein Q8C878 NEDD8-activating enzyme .. subunit)?
The value was −1.68.

And the “ISRIB Direction Same as dE?” value [5]?
Its value is “yes”.

What about the “ISRIBvWT Z Score” value [5] of the same molecule?
The value was −0.32.

And the “ISRIB Direction Same as dE?” value [6]?
The value was “yes”.

What about the “ISRIBvWT Z Score” value [6] of the same molecule?
The value was −3.65.

What about the “ISRIBvWT Z Score” value (EV protein Q9FS30, Complement C1q tumor necrosis factor-related protein 3) of the same molecule?
Its value is −0.18.

What about the “ISRIBvWT Z Score” value (EV protein Q9Z1Z0, General vesicular transport factor p115) of the same molecule?
Its value is 2.44.

And the “ISRIBvWT Z Score” value (EV protein Q9Z2X1 Heterogeneous nuclear ribonucleoprotein E)?
Its value is −0.18.

And the “ISRIBvWT Z Score” value (EV protein Q78ZA7, Nucelosome assembly protein 1-like 4)?
The value was 2.43.

What about the “ISRIBvWT Z Score” value (EV protein Q99KJ8 Dynactin subunit 2) of the same molecule?
The value was 0.53.

And the “ISRIBvWT Z Score” value (EV protein Q922B2 Aspartate--tRNA ligase)?
Its value is −1.13.

And the “ISRIBvWT Z Score” value (EV protein Q01405 Protein transport protein .. 23A)?
Its value is −0.95.

And the “ISRIBvWT Z Score” value (EV protein Q60751, Insulin-like growth factor 1 receptor)?
Its value is 0.75.

And the “ISRIB Direction Same as dE?” value [7]?
The value was “yes”.

What about the “ISRIBvWT Z Score” value [7] of the same molecule?
The value was −0.82.

What about the “ISRIB Direction Same as dE?” value [8] of the same molecule?
The value was “yes”.

And the “ISRIBvWT Z Score” value [8]?
The value was −2.13.

And the “ISRIB Direction Same as dE?” value (EV protein Qars (Q8BML9))?
Its value is “yes”.

What about the “ISRIBvWT Z Score” value (EV protein Qars (Q8BML9)) of the same molecule?
Its value is −2.14.

What about the “ISRIBvWT Z Score” value (EV protein Rab6a (P35279)) of the same molecule?
Its value is 0.44.

And the “ISRIB Direction Same as dE?” value (EV protein Rbbp4 (Q60972))?
The value was “yes”.

What about the “ISRIBvWT Z Score” value (EV protein Rbbp4 (Q60972)) of the same molecule?
Its value is −1.73.

And the “ISRIB Direction Same as dE?” value [9]?
The value was “yes”.

What about the “ISRIBvWT Z Score” value [9] of the same molecule?
The value was −1.84.

What about the “ISRIBvWT Z Score” value (EV protein Rpl22 (P67984)) of the same molecule?
Its value is 2.38.

And the “ISRIBvWT Z Score” value (EV protein S100a11 (P50543))?
Its value is 0.33.

What about the “ISRIBvWT Z Score” value (EV protein Scarb2 (Q35114)) of the same molecule?
The value was 0.09.

What about the “ISRIB Direction Same as dE?” value (EV protein Sec23a (Q01405)) of the same molecule?
The value was “yes”.

What about the “ISRIBvWT Z Score” value (EV protein Sec23a (Q01405)) of the same molecule?
The value was −0.95.

And the “ISRIB Direction Same as dE?” value (EV protein Shmt2 (Q9CZN7))?
The value was “yes”.

And the “ISRIBvWT Z Score” value (EV protein Shmt2 (Q9CZN7))?
The value was −1.44.

What about the “ISRIBvWT Z Score” value (EV protein Shrnt2 Q9CZN7) of the same molecule?
The value was −1.44.

What about the “ISRIB Direction Same as dE?” value (EV protein Spp1 (P10923)) of the same molecule?
The value was “yes”.

What about the “ISRIBvWT Z Score” value (EV protein Spp1 (P10923)) of the same molecule?
Its value is 2.67.

And the “ISRIB Direction Same as dE?” value (EV protein Sptan1 (P16546))?
The value was “yes”.

What about the “ISRIBvWT Z Score” value (EV protein Sptan1 (P16546)) of the same molecule?
The value was −0.40.

What about the “ISRIBvWT Z Score” value (EV protein Ssb (P32067)) of the same molecule?
The value was 0.41.

What about the “ISRIB Direction Same as dE?” value (EV protein Ssbp1 (Q9CYR0)) of the same molecule?
Its value is “yes”.

What about the “ISRIBvWT Z Score” value (EV protein Ssbp1 (Q9CYR0)) of the same molecule?
Its value is −1.49.

And the “ISRIBvWT Z Score” value (EV protein Svep1 (A2A0A0))?
The value was −0.50.

And the “ISRIB Direction Same as dE?” value (EV protein Tars (Q9D0R2))?
Its value is “yes”.

And the “ISRIBvWT Z Score” value (EV protein Tars (Q9D0R2))?
The value was −1.16.

What about the “ISRIBvWT Z Score” value (EV protein Tra2b (P62996)) of the same molecule?
The value was 0.54.

And the “ISRIBvWT Z Score” value (EV protein Vapa (Q9WV55))?
Its value is 3.18.

What about the “direction of modulated EV protein expression” value (RTV Therapeutic Efficacy with ISRIB Insensitivity subset, 33 proteins) of the same molecule?
Its value is “in the opposite direction of DYT1 genotype-dependent direction”.

And the “direction of modulated EV protein expression” value (RTV Therapeutic Efficacy with ISRIB Sensitivity subset, 121 proteins)?
The value was “modulated expression in a predicted pathological direction”.
